This is an account of results in patent publication US20230250095A1, “BENZIMIDAZOLE DERIVATIVES, PREPARATION METHOD THEREFOR AND MEDICAL USE THEREOF” (TUOJIE BIOTECH(SHANGHAI) CO., LTD., priority 2020, published 2023).

Each structure is given as a SMILES string.

The target of one data set is T1, CYP2D6 (Homo sapiens, UniProt P10635).
T1 construct: 150-donor pooled human liver microsomes (purchased from Corning, Cat. No. 452117); tissue Corning 452117; host or cells: 150-donor pooled human liver microsomes
T1 sequence (P10635 whole entry): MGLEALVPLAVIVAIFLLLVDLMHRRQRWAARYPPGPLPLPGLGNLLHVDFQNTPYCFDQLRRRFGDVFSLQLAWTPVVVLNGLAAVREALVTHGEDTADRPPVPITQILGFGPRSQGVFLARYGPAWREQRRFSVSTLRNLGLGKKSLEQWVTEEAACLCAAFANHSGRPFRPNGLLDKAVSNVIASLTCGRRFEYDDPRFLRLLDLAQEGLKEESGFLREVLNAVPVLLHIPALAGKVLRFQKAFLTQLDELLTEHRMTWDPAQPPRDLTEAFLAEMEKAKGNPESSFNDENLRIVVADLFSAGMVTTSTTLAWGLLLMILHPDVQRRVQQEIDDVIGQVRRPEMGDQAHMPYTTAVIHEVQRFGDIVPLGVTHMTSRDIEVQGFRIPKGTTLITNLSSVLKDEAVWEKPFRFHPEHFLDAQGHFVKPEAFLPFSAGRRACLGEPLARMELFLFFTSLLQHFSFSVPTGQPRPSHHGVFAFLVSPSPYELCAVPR
The data set is described as follows: CYP inhibition assay in pooled human liver microsomes (bufuralol hydrochloride). It counts as in vitro ADME. The note with it: human liver microsomes 0.2 mg/mL, substrate bufuralol hydrochloride; read-out: CYP 2D6 (μM) IC50. As for the experimental part:
(§1) The metabolic reactions of representative substrates of 5 major human CYP subtypes (CYP1A2, CYP2C9, CYP2C19, CYP2D6, CYP3A4/5) were evaluated using 150-donor pooled human liver microsomes (purchased from Corning, Cat. No. 452117). The effects of different concentrations of the test compounds on the metabolic reactions of phenacetin (CYP1A2), diclofenac sodium (CYP2C9), S-mephenytoin (CYP2C19), bufuralol hydrochloride (CYP2D6) and midazolam (CYP3A4/5) were determined by liquid chromatography-tandem mass spectrometry (LC/MS/MS).
(§2) 30 μM phenacetin, 10 μM diclofenac sodium, 35 μM S-mephenytoin, 5 μM bufuralol hydrochloride, 3 μM midazolam, 1 mM NADPH, and test compounds (at concentrations of 0.1 μmol/L, 0.3 μmol/L, 1 μmol/L, 3 μmol/L, 10 μmol/L, and 30 μmol/L, respectively) or positive compound or blank were incubated with 200 μL of a reaction system of pooled human liver microsomes (0.2 mg/mL) (100 mmol/L phosphate buffer, pH 7.4, containing 0.3% by volume of DMSO, 0.6% by volume of acetonitrile, and 0.1% by volume of methanol) at 37° C. for 5 min. Then, 200 μL of acetonitrile containing 3% formic acid and 40 nM internal standard verapamil was added, and the mixture was centrifuged at 4000 rpm for 50 min. The mixture was cooled on ice for 20 min and centrifuged at 4000 rpm for 20 min to precipitate the protein. 200 μL of the supernatant was analyzed by LC/MS/MS.
(§3) The peak area was calculated from the chromatogram. The residual activity rate (%) was calculated by the following formula:
(§4) peak area rate=peak area of metabolite/peak area of internal standard
(§5) residual activity rate (%)=peak area proportion of the test compound group/peak area proportion of the blank group
(§6) The half maximal inhibitory concentrations (IC50) against CYP were calculated by Excel XLfit 5.3.1.3.
(Liver microsomes are a subcellular fraction often used to study metabolism.)

The nature of data set [1]: In vitro metabolic stability in human hepatocytes. It counts as in vitro ADME. Particulars: human hepatocytes 1×10^6 cells/mL, 37° C., up to 120 min; read-out: Intrinsic clearance (uL/min/10^6 cells). As to the method:
The concentrations of the test compounds in the reaction system were determined by LC/MS/MS, so that the intrinsic clearance of the test compounds was calculated, and the in vitro metabolic stability in human hepatocytes was evaluated.
247.5 μL of a mixed solution of human hepatocytes at 1×10^6 cells/mL (purchased from BioreclamationIVT, Cat. No. S01205) and 2.5 μL of 100 μM test compound or positive control was added to a plate to initiate the reaction. The plate was incubated at 37° C. and 600 rpm. 20 μL of incubation system was transferred to a stop plate at 0.5 min, 5 min, 15 min, 30 min, 45 min, 60 min, 80 min, 100 min and 120 min. Then, the mixture was vortexed for 2 min to be mixed well. The stop plate was centrifuged at 4000 rpm for 20 min. 40 μL of supernatant of each compound was transferred to a 96-well sample template, after which 160 μL of pure water was added to dilute the samples.
The resulting samples were quantified from ion chromatogram. The residual rate was calculated from the peak area of the test compound or the positive control. Slope k was determined by linear regression of the […] of residual rates versus incubation time using Microsoft Excel.
Intrinsic clearance (in vitro CLint, μL/min/10^6 cells) was calculated from the slope value according to the following equation:
V=incubation volume (0.25 mL);
N=number of cells per well (0.25×10^6 cells)

The target in the next data set is T2, CYP2C9 (Homo sapiens, UniProt P11712).
T2 construct: 150-donor pooled human liver microsomes (purchased from Corning, Cat. No. 452117); tissue Corning 452117; host or cells: 150-donor pooled human liver microsomes
T2 sequence (P11712 whole entry): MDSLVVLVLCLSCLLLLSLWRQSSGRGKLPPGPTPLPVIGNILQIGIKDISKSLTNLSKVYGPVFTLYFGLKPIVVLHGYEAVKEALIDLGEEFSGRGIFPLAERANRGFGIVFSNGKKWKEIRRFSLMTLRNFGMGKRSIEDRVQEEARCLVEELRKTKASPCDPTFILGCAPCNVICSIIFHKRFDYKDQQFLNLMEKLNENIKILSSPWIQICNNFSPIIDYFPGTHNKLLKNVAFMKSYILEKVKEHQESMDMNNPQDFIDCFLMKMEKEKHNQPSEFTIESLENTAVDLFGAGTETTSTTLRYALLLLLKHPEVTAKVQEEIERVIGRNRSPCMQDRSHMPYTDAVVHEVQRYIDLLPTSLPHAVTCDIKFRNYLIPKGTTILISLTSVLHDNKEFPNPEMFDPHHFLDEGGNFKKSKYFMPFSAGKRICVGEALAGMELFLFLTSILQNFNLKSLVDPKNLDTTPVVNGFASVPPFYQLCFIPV
The data set is described as follows: CYP inhibition assay in pooled human liver microsomes (diclofenac sodium). It counts as in vitro ADME. The note with it: human liver microsomes 0.2 mg/mL, substrate diclofenac sodium; read-out: CYP 2C9 (μM) IC50. As to the method: as §1, §2, §3, §4, §5, §6

The nature of data set [2]: In vivo pharmacokinetic experiment in rats, intragastric administration. The note with it: SD rats, 5 mg/kg. As to the method: The drug concentrations in the plasma of the test animals (rats) at different time points after intragastric administration of the compound of the present disclosure were determined by an LC/MS/MS method. The pharmacokinetic behavior in rats of the compound of the present disclosure was studied and its pharmacokinetic profile was evaluated.
Male, healthy SD rats of SPF grade, 6-8 weeks old, 3 rats in each group.
Intragastric administration: a certain amount of compound was weighed and prepared into a 1 mg/mL white suspension by adding 0.5% by volume of hydroxypropyl methylcellulose, 0.1% by volume of tween 80 and 99.4% by volume of water.
SD rats were administered intragastrically with compound 4 or BLU-5937 at a dose of 5 mg/kg after fasting overnight.
Rats were administered intragastrically with the compound of the present disclosure. 0.2 mL of blood was collected from the jugular vein at 0.25 h, 0.5 h, 1 h, 2 h, 4 h, 8 h and 24 h after the administration, placed in a tube containing EDTA-K2, separated by centrifugation at 4° C. at 4000 rpm for 5 min to obtain plasma, which was stored at −75° C.
Determination of the content of the test compounds at different concentrations in the plasma of rats after intragastric administration: 50 μL of rat plasma at each time point after the administration was taken, 200 μL of a solution of internal standard dexamethasone (50 ng/mL) in acetonitrile was added thereto, and the mixture was vortexed for 30 s to be mixed well, centrifuged at 4° C. at 4700 rpm for 15 min. The supernatant of the plasma sample was subjected to 3-fold dilution with water, and 2.0 μL of the dilution was taken for LC/MS/MS analysis.

As to `[2H]C([2H])([2H])c1ccc2c(c1)nc(-c1c(F)cc(N3CCCC3=O)cc1F)n2C[C@H]1CN(C(C)=O)CCO1` [Compound 14, (S)-1-(4-(1-((4-acetylmorpholin-2-yl)methyl)-5-(methyl-d3)-1H-benzo[d]imidazol-2-yl)-3,5-difluorophenyl)pyrrolidin-2-one], the IC50 is above 30 µM at CYP2D6 and 21.9 µM at CYP2C9. Besides, in data set [1], the hepatocyte CLint at 1 μM is below 1 µL/min/1e6 cells.

For the compound `CC(=O)N1CCO[C@@H](Cn2c(-c3c(F)cc(N4CCCC4=O)cc3Cl)nc3cc(C)ccc32)C1` [Compound 4, (S)-1-(4-(1-((4-acetylmorpholin-2-yl)methyl)-5-methyl-1H-benzo[d]imidazol-2-yl)-3-chloro-5-fluorophenyl)pyrrolidin-2-one], the IC50 at CYP2D6 is above 30 µM. Also, the hepatocyte CLint at 1 μM in data set [1] was below 1 µL/min/1e6 cells. Besides, in data set [2], the “V” value is 2.05 L/kg. Also, in data set [2] (male, rat, plasma, po), the Tmax was 25.2 min and the half-life is 57.6 min. In data set [2] (male, rat, po, plasma), the area under the curve AUC(0-t) is 408 ng·h/mL and the highest level (Cmax) was 356 ng/mL. Besides, the IC50 on CYP2C9 was above 30 µM.

As for `CC(=O)N1CCO[C@@H](Cn2c(-c3c(F)cc(N4CCCC4=O)cc3F)nc3cc(Cl)ccc32)C1` [Compound 10, (S)-1-(4-(1-((4-acetylmorpholin-2-yl)methyl)-5-chloro-1H-benzo[d]imidazol-2-yl)-3,5-difluorophenyl)pyrrolidin-2-one], the IC50 on CYP2D6 and at CYP2C9 was above 30 µM throughout. The hepatocyte CLint at 1 μM in data set [1] was below 1 µL/min/1e6 cells.

Take `COC(=O)N1CCO[C@@H](Cc2c(-c3c(F)cc(N4CCCC4=O)cc3F)nc3cc(C)ccn23)C1` [Compound 9, Methyl (S)-2-((2-(2,6-difluoro-4-(2-carbonylpyrrolidin-1-yl)phenyl)-7-methylimidazo[1,2-a]pyridin-3-yl)methyl)morpholine-4-carboxylate]: the values for the IC50 on CYP2D6 and on CYP2C9 were above 30 µM and 1.48 µM, respectively. Besides, the hepatocyte CLint at 1 μM in data set [1] worked out at 3.86 µL/min/1e6 cells.

For `CC(=O)N1CCOC(Cn2c(-c3c(F)cc(N4CCCC4=O)cc3F)nc3cc(C)ccc32)C1` (stereo in doubt) [Compound 1], the IC50 at CYP2D6 was above 30 µM; at CYP2C9 it was 21.7 µM. Besides, the hepatocyte CLint at 1 μM in data set [1] is below 1 µL/min/1e6 cells.

With `CC(=O)N1CCO[C@@H](Cn2c(-c3ccc(N4CCCC4=O)cc3Cl)nc3cc(C)ccc32)C1` [Compound 3, (S)-1-(4-(1-((4-acetylmorpholin-2-yl)methyl)-5-methyl-1H-benzo[d]imidazol-2-yl)-3-chlorophenyl)pyrrolidin-2-one], the IC50 at CYP2D6 and at CYP2C9 was above 30 µM each time. Further, the hepatocyte CLint at 1 μM in data set [1] was 4.08 µL/min/1e6 cells.

Consider `COC(=O)N1CCOC(Cn2c(-c3c(F)cc(N4CCCC4=O)cc3F)nc3cc(C)ccc32)C1` (centres unmarked) [Compound 2, Methyl 2-((2-(2,6-difluoro-4-(2-carbonylpyrrolidin-1-yl)phenyl)-5-methyl-1H-benzo[d]imidazol-1-yl)methyl)morpholine-4-carboxylate], for which the IC50 is above 30 µM at CYP2D6 and 3.06 µM on CYP2C9. Besides, the hepatocyte CLint at 1 μM in data set [1] came to 2.98 µL/min/1e6 cells.

One may read the IC50 as the point on the concentration scale where inhibition reaches its midpoint. For orientation: Tmax means the time from dosing to the highest level. What is called half-life is the time in which the quantity being followed falls by half. Low readings indicate fast loss, high ones slow loss. As a reminder, the AUC(0-t) is exposure summed from dosing to a finite time, without extrapolation to infinity. A low value points to low exposure. As a reminder, the Cmax is the peak of the concentration-time curve.
